Results reported in paper PMC9854712 (Antioxidants, 2023).
Read-outs that look alike come from different tables or passages of the source.

Assays:
[1] = test system: panel of 60 human tumor cell lines; set-up: method as in PMID 19549304; details: same cell line panel; cited from earlier work
HTB-54 cells [2] = test system: HTB-54 cells; set-up: method as in PMID 36257283; details: parent NSAIDs; cited from earlier work
HT-29 cells [3] = details: parent NSAIDs; cited from earlier work
MCF-7 cells [4] = test system: MCF-7 cells; set-up: method as in PMID 36257283; details: parent NSAIDs; cited from earlier work
DU-145 cells = test: MTT cell viability assay, DU-145; assay type: cell-based; details: Homo sapiens, DU-145, 48 h, read-out: Cell growth % at 10 µM, DU-145
Description: (§1) The cell lines were obtained from the American Type Culture Collection (ATCC). Five tumor cell lines (MDA-MB-231, MCF-7, HCT116, HTB-54, and DU-145) and two non-tumorigenic cells (184B5 and BEAS-2B) were grown in RPMI 1640 medium (Gibco), and the HT-29 tumor cell line was grown in McCoy’s medium. Both mediums were supplemented with 10% fetal bovine serum (FBS; Gibco) and 1% antibiotics (10.00 units/mL penicillin and 10.00 μg/mL streptomycin; Gibco). Cells were preserved in tissue culture flasks at 37 °C and 5% CO2. The culture medium was replaced every three days.
(§2) The effect of each compound on cell viability was tested using the MTT assay. […] Selected compounds were then tested at seven different concentrations (0.5–100 μM) in MCF-7, HCT116, HT-29, HTB-54, 184B5 and BEAS-2B cells. Cells were seeded at 10^4 per well onto flat-bottomed 96-well culture plates. They were treated with either DMSO or increasing concentration of the corresponding compound for 48 h. Then, they were incubated with 20 μL of 3-(4,5-dimethylthiazol-2-yl)-2,5-diphenyltetrazolium bromide (MTT) (2 mg /mL stock; Aldrich) for 2,5 h and analyzed for their ability to generate a purple formazan dye. These formazan crystals were dissolved in 50 μL of DMSO. The absorbance was measured at a wavelength of 550 nm and the ratio of viable cells was calculated.
(§3) Results are expressed as cell viability % at 10 μM. Selectivity index were calculated as the ratio of the IC50 values determined for the non-malignant and the tumor cells in breast (IC50 (184B5)/IC50 (MCF-7)) and lung (IC50 (BEAS-2B)/IC50 (HTB-54)) cell lines. Data were obtained from at least three independent experiments performed in triplicates.

HTB-54 cells [5] = test: MTT cell viability assay, HTB-54; assay type: cell-based; details: for viability at 10 µM / IC50: HTB-54, 48 h, MTT; for viability at 10 µM: read-out: Cell growth % at 10 µM, HTB-54; for SI (lung): IC50 (BEAS-2B)/IC50 (HTB-54)
Description: as §1, §2, §3

MDA-MB-231 cells = test: MTT cell viability assay, MDA-MB-231; assay type: cell-based; details: Homo sapiens, MDA-MB-231, 48 h, read-out: Cell growth % at 10 µM, MDA-MB-231
Description: as §1, §2, §3

in vitro = test: in vitro
Description: Franz diffusion cells (Microette 8910130, Hanson Research) were employed to perform this assay. The compounds were dissolved in DMSO at 5 mg/mL and diluted to 500 µg/mL with phosphate-buffered saline (PBS)/EtOH (7:3) to make a stock solution. A total of 10 µL of porcine brain lipid (PBL) diluted in dodecane solution (20 mg/mL) was spread onto a PVDF membrane that was placed between the donor and acceptor compartments, forming a sandwich structure. Then, 4.5 mL of PBS/EtOH (7:3) was added to the acceptor compartment and 700 µL of the stock solution was added to the donor cell. […] The concentration of the compound was calculated from the standard curve and expressed as permeability (Pe) by the following formula [84]:Permeability (cm/s): Pe = {−ln [1 − CA(t)/Ceq]}/[A ∗ (1/VD + 1/VA) ∗ t]
A = filter area ([…]), VD = donor cell volume (0.7 mL), VA = acceptor cell volume (4.5 mL), t = incubation time, CA (t) = compound concentration in acceptor cell at time t, CD (t) = compound concentration in donor cell at time t, and Ceq = [CD(t) ∗ VD + […] ∗ VA]/(VD + VA).
Every sample was analyzed at least in duplicate and the data were reported as mean ± SD.

AChE = target: T1, AChE (Rattus norvegicus, UniProt P37136); test: AChE inhibition by Ellman's method (rat frontal cortex homogenate); assay type: biochemical
T1 construct: from tissue; host or cells: frontal cortex of male Wistar rats (crude homogenate)
T1 sequence (P37136 32-614): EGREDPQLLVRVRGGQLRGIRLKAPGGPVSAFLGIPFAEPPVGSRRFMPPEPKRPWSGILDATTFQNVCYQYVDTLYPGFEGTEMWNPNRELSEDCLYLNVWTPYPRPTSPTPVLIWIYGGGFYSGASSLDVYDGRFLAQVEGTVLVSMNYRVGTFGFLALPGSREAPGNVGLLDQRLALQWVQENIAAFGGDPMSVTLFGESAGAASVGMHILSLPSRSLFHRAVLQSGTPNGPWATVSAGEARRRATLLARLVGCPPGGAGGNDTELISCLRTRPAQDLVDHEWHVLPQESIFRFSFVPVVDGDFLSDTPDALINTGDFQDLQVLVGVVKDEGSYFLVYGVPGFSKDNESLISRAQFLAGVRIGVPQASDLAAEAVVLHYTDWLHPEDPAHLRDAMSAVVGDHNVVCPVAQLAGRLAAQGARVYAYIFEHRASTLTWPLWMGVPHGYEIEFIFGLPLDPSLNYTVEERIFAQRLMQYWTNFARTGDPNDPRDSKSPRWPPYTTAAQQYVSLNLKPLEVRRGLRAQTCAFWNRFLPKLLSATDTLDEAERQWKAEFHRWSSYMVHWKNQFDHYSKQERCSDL
Description: Frontal cortex tissue obtained from male Wistar rats was homogenized in 39 volumes of 75 mM sodium phosphate buffer (pH 7.4). A mixture of 260 μL containing the compounds assessed, acetylthiocholine iodide and 5 μL tissue homogenate was incubated for 8 min. The reaction was then terminated by adding 50 μL 3% (w/v) sodium dodecyl sulphate followed by 50 μL 0.2% (w/v) 5,5′-dithio-bis(2-nitrobenzoic) acid to produce the yellow anion of 5-thio-2-nitro-benzoic-acid. The extent of the color production was measured spectrophotometrically at 405 nm using Multiskan Ex (Thermo Electron Corporation). […] Results are expressed as the mean ± SD and each experiment was repeated three times.

HT-29 cells [6] = test: MTT cell viability assay, HT-29; assay type: cell-based; details: Homo sapiens; for viability at 10 µM: HT-29, 10 µM, 48 h, read-out: Cell growth % at 10 µM, HT-29; for IC50: HT-29, 48 h
Description: as §1, §2, §3

BEAS-2B cells = test: MTT cell viability assay, BEAS-2B (non-tumorigenic); assay type: cell-based; details: Homo sapiens, 48 h, nonmalignant bronchial epithelium
Description: as §1, §2, §3

[7] = test system: HTB-54, DU-145, HT-29 and MDA-MB-231 cancer cell lines; test: cells; assay type: cell-based; details: against the panel of the four cancer cell lines
Description: as §1, §2
As a first approach, all the compounds were tested in vitro against lung (HTB-54), prostatic (DU-145), colon (HT-29), and triple-negative breast (MDA-MB-231) cancer cell lines at two concentrations (50 and 10 µM) for 48 h. Then, the MTT colorimetric assay was used to evaluate cell proliferation after the treatment. The data are expressed as the percentage of cell growth ± SD in at least three independent experiments performed in quadruplicates (Table S1).

HCT116 cells = test: MTT cell viability assay, HCT116; assay type: cell-based; details: Homo sapiens, HCT-116, 48 h
Description: as §1, §2, §3

184B5 cells = test: MTT cell viability assay, 184B5 (non-tumorigenic); assay type: cell-based; details: Homo sapiens, 48 h, nonmalignant mammary gland
Description: as §1, §2, §3

MCF-7 cells [8] = test: MTT cell viability assay, MCF-7; assay type: cell-based; details: for IC50: Homo sapiens, MCF7, MTT, 48 h; for SI (breast): IC50 (184B5)/IC50 (MCF-7)
Description: as §1, §2, §3

Compound	viability at 10 µM (DU-145 cells) [%]	viability at 10 µM (HTB-54 cells [5]) [%]	viability at 10 µM (MDA-MB-231 cells) [%]	inhibition at 1 µM (AChE; at 10^−6 M, Ellman's method) [%]	viability at 10 µM (HT-29 cells [6]) [%]	other results
O=c1[nH]cc(F)c(=O)[nH]1 [5-fluorouracil]	–	–	–	–	–	GI50 [1]: 57.5 µM
CC(=O)Oc1ccccc1C(=O)O [ASA]	–	–	–	–	–	IC50 (HTB-54 cells [2]): > 100 µM; IC50 (HT-29 cells [3]): > 100 µM; IC50 (MCF-7 cells [4]): > 100 µM
C=CC[Se]C(=O)c1sccc1Cl [Compound 10a, Se-allyl 3-chlorothiophene-2-carboselenoate]	33.4 ± 6.4	27.1 ± 11.2	41.3 ± 3.5	42.5	61.5 ± 17.6	Papp at 20 h, 500 µg/mL (in vitro; PAMPA): 38.6 ± 1.3 ×10⁻⁶ cm/s; fold higher Pe compared to galantamine (in vitro; PAMPA-BBB): 3 fold; Pe ± SD (in vitro; PAMPA-BBB, porcine brain lipid, 20 h, 25 °C): 38.63 ×10⁻⁶ cm/s; BBB Permeation (Experimental) (in vitro; class from PAMPA-BBB Pe): High (High BBB permeation predicted; Pe (10^−6 cm s^−1) > 4.0); IC50 (AChE): 2.4 ± 1.2 µM; % AChE Inhibition (AChE; at 10^−6 M, Ellman's method): 42.5 ± 6.4%
C=CC[Se]C(=O)c1ccccc1O [Compound 13a, Se-allyl 2-hydroxybenzoselenoate]	29.5 ± 4.3	40.9 ± 4.9	77.1 ± 12.6	51.8 ± 4	88.8 ± 8.6	stability during the PAMPA-BBB experiment (in vitro; observation in words): signs of degradation; IC50 (AChE): 5.2 ± 2.3 µM
C=CC[Se]C(=O)C(C)c1ccc(CC(C)C)cc1 (stereo not drawn) [Compound 15a]	19.1 ± 7	38 ± 7.1	38 ± 5.4	19.3 ± 0.1	49 ± 7.2	IC50 (BEAS-2B cells): 11.1 ± 2.6 µM; viability at 10 µM [7]: < 55%; IC50 (HTB-54 cells [5]): 23.5 ± 5.8 µM; SI (lung) (HTB-54 cells [5]): 0.5; IC50 (HCT116 cells): 10.2 ± 0.1 µM; IC50 (184B5 cells): 11.5 ± 1.4 µM; IC50 (MCF-7 cells [8]): 11.2 ± 0.2 µM; SI (breast) (MCF-7 cells [8]): 1.1; IC50 (HT-29 cells [6]): 9.2 ± 0.7 µM
C=CC[Se]C(=O)C(C)c1ccc2cc(OC)ccc2c1 [Compound 16a, Se-allyl (S)-2-(6-methoxynaphtalen-2-yl)propaneselenoate]	18.8 ± 6.3	30.9 ± 6.7	33.8 ± 5.6	20.3 ± 4.2	49.9 ± 5.6	IC50 (BEAS-2B cells): 14.7 ± 8.7 µM; viability at 10 µM [7]: < 55%; IC50 (HTB-54 cells [5]): 9.9 ± 0.3 µM; SI (lung) (HTB-54 cells [5]): 1.5; IC50 (HCT116 cells): 27.1 ± 2.7 µM; IC50 (184B5 cells): 11.1 ± 1.1 µM; IC50 (MCF-7 cells [8]): 10.9 ± 1.3 µM; SI (breast) (MCF-7 cells [8]): 1.0; IC50 (HT-29 cells [6]): 9.4 ± 0.6 µM
C#CC[Se]C(=O)Cc1c(C)n(C(=O)c2ccc(Cl)cc2)c2ccc(OC)cc12 [Compound 17b, Se-prop-2-ynyl 2-(1-(4-chlorobenzoyl)-5-methoxy-2-methyl-1H-indol-3-yl)ethaneselenoate]	19.2 ± 4	85.9 ± 5.1	59.1 ± 11.5	23 ± 6.7	66.3 ± 10.2	–
C=CC[Se]C(=O)c1ccccc1Nc1cccc(C)c1C [Compound 18a, Se-allyl 2-(2,3-dimethylphenyl)aminebenzoselenoate]	74.7 ± 13.7	40.9 ± 18.5	85.9 ± 9.5	18.4 ± 3.6	71.5 ± 11.7	–
